Data taken from ChEMBL document CHEMBL3632526, “Novel, potent, selective and cellular active ABC type PTP1B inhibitors containing (methanesulfonyl-phenyl-amino)-acetic acid methyl ester phosphotyrosine mimetic” (Bioorg Med Chem, 2015).
pIC50: −log10 of the molar value. Each block holds one compound with its values, some of them ahead of it. Active and inactive are the calls of the source. The rule behind the calls is not given here.

How the values were obtained:
[1] = biological target: T1, Tyrosine-protein phosphatase non-receptor type 1 (Homo sapiens, UniProt P18031); experiment: Inhibition of recombinant PTP1B (unknown origin) assessed as hydrolysis of pNPP to pNP after 30 mins
T1 sequence (P18031 whole entry): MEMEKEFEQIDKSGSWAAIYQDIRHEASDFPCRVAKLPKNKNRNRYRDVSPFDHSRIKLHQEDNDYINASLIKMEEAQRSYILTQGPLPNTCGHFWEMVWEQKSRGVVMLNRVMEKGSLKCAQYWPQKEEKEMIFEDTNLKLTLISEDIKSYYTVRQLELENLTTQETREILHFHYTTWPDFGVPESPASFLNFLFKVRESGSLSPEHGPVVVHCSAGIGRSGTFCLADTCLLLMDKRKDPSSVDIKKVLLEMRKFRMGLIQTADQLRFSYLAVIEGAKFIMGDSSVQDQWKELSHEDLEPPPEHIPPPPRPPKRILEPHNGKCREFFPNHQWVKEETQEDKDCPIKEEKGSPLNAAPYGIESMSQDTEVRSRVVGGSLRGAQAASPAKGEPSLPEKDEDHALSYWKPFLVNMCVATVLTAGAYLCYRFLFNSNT

[2] = biological target: T2, Tyrosine-protein phosphatase non-receptor type 1 (Homo sapiens) (UniProt P18031); experiment: Inhibition of recombinant PTP1B (unknown origin) assessed as hydrolysis of pNPP to pNP at 25 uM after 30 mins
T2 sequence (whole entry): T1 sequence (P18031 whole entry)

[3] = biological target: T3, Tyrosine-protein phosphatase non-receptor type 11 (Homo sapiens, UniProt Q06124); experiment: Inhibition of SHP2 (unknown origin) assessed as hydrolysis of pNPP to pNP after 30 mins
T3 sequence (Q06124 whole entry): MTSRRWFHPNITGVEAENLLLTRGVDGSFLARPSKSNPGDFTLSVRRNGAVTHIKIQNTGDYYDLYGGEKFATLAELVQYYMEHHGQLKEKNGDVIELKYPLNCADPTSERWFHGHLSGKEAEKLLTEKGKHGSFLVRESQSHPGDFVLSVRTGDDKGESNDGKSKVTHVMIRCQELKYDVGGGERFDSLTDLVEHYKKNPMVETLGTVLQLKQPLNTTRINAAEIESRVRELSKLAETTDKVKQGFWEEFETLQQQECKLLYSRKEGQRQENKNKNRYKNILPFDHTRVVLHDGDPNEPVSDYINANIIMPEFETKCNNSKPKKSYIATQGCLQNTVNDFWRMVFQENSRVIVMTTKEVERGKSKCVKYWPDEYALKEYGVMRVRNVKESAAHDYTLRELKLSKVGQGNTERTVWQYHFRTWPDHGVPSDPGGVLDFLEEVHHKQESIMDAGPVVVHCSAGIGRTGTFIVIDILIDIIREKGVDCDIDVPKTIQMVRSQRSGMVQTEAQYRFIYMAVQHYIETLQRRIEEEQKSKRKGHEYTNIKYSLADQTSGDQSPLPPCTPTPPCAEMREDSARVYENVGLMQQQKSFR

[4] = biological target: Receptor-type tyrosine-protein phosphatase F (Homo sapiens) (UniProt P10586); experiment: Inhibition of LAR (unknown origin) assessed as hydrolysis of pNPP to pNP at 25 uM after 30 mins
Homo sapiens [5] = species on record: Homo sapiens; experiment: Selectivity ratio of IC50 for SHP1 (unknown origin) to IC50 for PTP1B (unknown origin)
[6] = biological target: T4, Tyrosine-protein phosphatase non-receptor type 2 (Homo sapiens) (UniProt P17706); experiment: Inhibition of TCPTP (unknown origin) assessed as hydrolysis of pNPP to pNP at 25 uM after 30 mins
T4 sequence (whole entry): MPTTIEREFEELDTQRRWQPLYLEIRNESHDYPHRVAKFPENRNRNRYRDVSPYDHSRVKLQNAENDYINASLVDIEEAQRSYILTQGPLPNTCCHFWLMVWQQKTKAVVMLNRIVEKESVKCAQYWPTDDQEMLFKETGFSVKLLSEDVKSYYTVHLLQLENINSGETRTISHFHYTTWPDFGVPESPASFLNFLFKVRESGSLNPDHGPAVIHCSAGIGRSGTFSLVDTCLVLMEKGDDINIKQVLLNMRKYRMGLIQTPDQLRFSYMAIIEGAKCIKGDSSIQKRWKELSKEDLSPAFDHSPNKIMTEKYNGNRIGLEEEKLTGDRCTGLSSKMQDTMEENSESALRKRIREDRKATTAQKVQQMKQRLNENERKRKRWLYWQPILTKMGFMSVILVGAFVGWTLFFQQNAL

[7] = biological target: T5, Tyrosine-protein phosphatase non-receptor type 6 (Homo sapiens, UniProt P29350); experiment: Inhibition of SHP1 (unknown origin) assessed as hydrolysis of pNPP to pNP after 30 mins
Homo sapiens [8] = species on record: Homo sapiens; experiment: Increase in insulin-stimulated glucose uptake in differentiated human skeletal muscle cells preincubated for 4 hrs followed by insulin stimulation for 10 mins and addition of 2-NBDG measured after 30 mins by 2-NBDG-based fluorescence analysis; type: functional
Homo sapiens [9] = species on record: Homo sapiens; experiment: Selectivity ratio of IC50 for TCPTP (unknown origin) to IC50 for PTP1B (unknown origin)
[10] = biological target: T6, Tyrosine-protein phosphatase non-receptor type 11 (Homo sapiens) (UniProt Q06124); experiment: Inhibition of SHP2 (unknown origin) assessed as hydrolysis of pNPP to pNP at 25 uM after 30 mins
T6 sequence (whole entry): T3 sequence (Q06124 whole entry)

[11] = biological target: T7, Tyrosine-protein phosphatase non-receptor type 2 (Homo sapiens, UniProt P17706); experiment: Inhibition of TCPTP (unknown origin) assessed as hydrolysis of pNPP to pNP after 30 mins
T7 sequence (P17706 whole entry): T4 sequence (whole entry)

L6 [12] = experiment: Increase in insulin stimulated glucose uptake in differentiated rat L6 myotube at 5 uM preincubated for 4 hrs followed by insulin stimulation for 10 mins and addition of 2-NBDG measured after 30 mins by 2-NBDG-based fluorescence analysis; type: functional
3T3-L1 = experiment: Inhibition of PTP1B in IRbeta expressing mouse 3T3L1 cells assessed as increase in phosphorylation level of IRbeta at 15 uM and 30 uM prior to insulin stimulation by SDS-PAGE analysis; type: cell-based
CHO = experiment: Inhibition of PTP1B in CHO cells transfected with human IRbeta expressing plasmid assessed as increase in phosphorylation level of IRbeta at 15 uM and 30 uM incubated for 4 hrs prior to insulin stimulation for 10 mins by SDS-PAGE analysis; type: cell-based; details: Cricetulus griseus
L6 [13] = experiment: Increase in insulin stimulated glucose uptake in differentiated rat L6 myotube at 10 uM preincubated for 4 hrs followed by insulin stimulation for 10 mins and addition of 2-NBDG measured after 30 mins by 2-NBDG-based fluorescence analysis; type: functional
[14] = biological target: T5, Tyrosine-protein phosphatase non-receptor type 6; experiment: Inhibition of SHP1 (unknown origin) assessed as hydrolysis of pNPP to pNP at 25 uM after 30 mins

Sequence of Receptor-type tyrosine-protein phosphatase F (Homo sapiens) (P10586 whole entry): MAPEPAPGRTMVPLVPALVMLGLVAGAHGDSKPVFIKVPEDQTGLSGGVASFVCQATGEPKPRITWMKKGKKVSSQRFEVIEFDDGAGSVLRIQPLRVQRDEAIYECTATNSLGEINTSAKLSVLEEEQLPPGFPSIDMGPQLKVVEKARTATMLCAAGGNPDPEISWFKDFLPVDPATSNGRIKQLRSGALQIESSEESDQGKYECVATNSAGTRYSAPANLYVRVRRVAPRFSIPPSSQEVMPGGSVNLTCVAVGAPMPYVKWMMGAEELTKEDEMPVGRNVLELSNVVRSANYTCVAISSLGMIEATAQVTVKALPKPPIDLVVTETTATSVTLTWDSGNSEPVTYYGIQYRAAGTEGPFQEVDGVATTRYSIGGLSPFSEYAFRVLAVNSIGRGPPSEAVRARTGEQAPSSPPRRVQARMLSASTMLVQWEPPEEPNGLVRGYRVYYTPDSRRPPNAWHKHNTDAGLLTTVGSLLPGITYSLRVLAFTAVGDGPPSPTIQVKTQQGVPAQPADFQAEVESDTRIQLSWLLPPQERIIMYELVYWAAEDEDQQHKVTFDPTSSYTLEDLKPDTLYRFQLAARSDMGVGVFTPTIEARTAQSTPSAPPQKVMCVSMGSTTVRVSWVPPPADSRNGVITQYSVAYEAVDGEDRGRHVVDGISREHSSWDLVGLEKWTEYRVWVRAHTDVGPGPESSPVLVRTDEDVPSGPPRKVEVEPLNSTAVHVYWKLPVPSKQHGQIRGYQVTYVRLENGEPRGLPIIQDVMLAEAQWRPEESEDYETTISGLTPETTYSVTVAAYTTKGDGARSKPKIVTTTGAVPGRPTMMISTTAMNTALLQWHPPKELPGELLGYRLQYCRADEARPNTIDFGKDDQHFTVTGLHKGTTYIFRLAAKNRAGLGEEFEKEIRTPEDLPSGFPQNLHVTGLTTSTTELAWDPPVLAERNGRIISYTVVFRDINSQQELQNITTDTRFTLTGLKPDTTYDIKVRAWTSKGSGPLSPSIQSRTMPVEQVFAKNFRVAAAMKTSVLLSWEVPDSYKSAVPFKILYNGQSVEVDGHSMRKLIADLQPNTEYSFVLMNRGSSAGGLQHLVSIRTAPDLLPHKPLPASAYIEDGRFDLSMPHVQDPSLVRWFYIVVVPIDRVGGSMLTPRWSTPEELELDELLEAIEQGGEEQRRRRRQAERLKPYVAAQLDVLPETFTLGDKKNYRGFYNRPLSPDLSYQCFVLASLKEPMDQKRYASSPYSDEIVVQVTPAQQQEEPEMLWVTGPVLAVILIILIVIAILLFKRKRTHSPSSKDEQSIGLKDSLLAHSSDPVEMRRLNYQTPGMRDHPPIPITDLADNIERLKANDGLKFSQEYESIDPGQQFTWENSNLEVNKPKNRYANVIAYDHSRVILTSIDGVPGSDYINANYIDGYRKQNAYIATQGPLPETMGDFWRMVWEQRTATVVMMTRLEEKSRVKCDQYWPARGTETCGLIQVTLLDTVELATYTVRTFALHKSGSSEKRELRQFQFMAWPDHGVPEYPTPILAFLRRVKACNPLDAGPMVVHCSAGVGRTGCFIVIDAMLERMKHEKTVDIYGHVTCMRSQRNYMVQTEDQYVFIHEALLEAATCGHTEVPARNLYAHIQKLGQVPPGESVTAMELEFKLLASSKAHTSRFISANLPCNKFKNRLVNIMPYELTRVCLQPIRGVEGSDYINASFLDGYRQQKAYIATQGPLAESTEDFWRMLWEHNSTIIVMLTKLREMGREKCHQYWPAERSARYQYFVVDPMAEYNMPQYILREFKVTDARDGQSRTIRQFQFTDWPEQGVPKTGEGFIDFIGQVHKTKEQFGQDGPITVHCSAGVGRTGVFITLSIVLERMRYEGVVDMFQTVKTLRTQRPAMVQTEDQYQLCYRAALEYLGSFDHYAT
T5 sequence (P29350 whole entry): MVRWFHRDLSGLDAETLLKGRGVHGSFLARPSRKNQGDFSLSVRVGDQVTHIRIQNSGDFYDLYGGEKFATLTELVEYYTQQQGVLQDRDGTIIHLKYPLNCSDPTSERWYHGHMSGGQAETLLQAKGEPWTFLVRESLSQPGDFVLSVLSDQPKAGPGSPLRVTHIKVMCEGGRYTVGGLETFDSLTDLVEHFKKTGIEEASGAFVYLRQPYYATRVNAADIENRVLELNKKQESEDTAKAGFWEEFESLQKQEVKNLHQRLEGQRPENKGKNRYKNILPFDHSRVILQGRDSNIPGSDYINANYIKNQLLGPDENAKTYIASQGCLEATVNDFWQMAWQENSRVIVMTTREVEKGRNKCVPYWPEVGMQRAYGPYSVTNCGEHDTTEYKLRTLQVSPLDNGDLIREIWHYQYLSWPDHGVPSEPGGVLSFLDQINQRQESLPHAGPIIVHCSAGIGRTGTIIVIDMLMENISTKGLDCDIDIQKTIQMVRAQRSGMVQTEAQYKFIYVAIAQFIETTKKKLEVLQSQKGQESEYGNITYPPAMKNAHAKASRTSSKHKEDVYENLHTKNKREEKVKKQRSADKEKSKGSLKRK

Structure (SMILES): CCCOc1ccc(S(=O)(=O)N(Cc2ccc(N(CC(=O)OC)S(C)(=O)=O)cc2)c2ccc(CN(Cc3ccccc3)S(C)(=O)=O)cc2)cc1
pIC50 [1]: 6.04

Structure (SMILES): CCCCOc1ccc(S(=O)(=O)N(Cc2ccc(N(CC(=O)OC)S(C)(=O)=O)cc2)c2ccc(NS(=O)(=O)Cc3ccccc3)cc2)cc1
pIC50 [1]: 5.77

Structure (SMILES): CCCCOc1ccc(S(=O)(=O)N(Cc2ccc(N(CC(=O)OC)S(C)(=O)=O)cc2)c2ccc(CN(Cc3ccccc3)S(C)(=O)=O)cc2)cc1
pIC50 [1]: 6.05

Structure (SMILES): COC(=O)CN(c1ccc(CN(c2ccc(CN(Cc3ccccc3)S(C)(=O)=O)cc2)S(=O)(=O)c2ccccc2)cc1)S(C)(=O)=O
pIC50 [1]: 4.79

Structure (SMILES): COC(=O)CN(c1ccc(CN(c2ccc(N(Cc3ccccc3)S(C)(=O)=O)cc2)S(=O)(=O)Cc2ccccc2)cc1)S(C)(=O)=O
pIC50 [3]: 4.93
pIC50 [1]: 6.31
inhibition [4]: < 50%
Ratio IC50 (Homo sapiens [5]): 20
inhibition [6]: < 50%
pIC50 [7]: 5.02

Structure (SMILES): CCOc1ccc(S(=O)(=O)N(Cc2ccc(N(CC(=O)OC)S(C)(=O)=O)cc2)c2ccc(CN(Cc3ccccc3)S(C)(=O)=O)cc2)cc1
Activity (Homo sapiens [8]): Dose-dependent effect
Ratio IC50 (Homo sapiens [9]): 8
inhibition [10]: < 50%
pIC50 [1]: 6.65
inhibition [4]: < 50%
pIC50 [11]: 5.73
Activity (L6 [12]): 23.3%
inhibition (3T3-L1): Active
inhibition (CHO): Active
Ratio IC50 (Homo sapiens [5]): 10
Activity (L6 [13]): 29.3%
pIC50 [7]: 5.64

Structure (SMILES): COC(=O)CN(c1ccc(CN(c2ccc(CN(Cc3ccccc3)S(C)(=O)=O)cc2)S(=O)(=O)c2ccc(OC)cc2)cc1)S(C)(=O)=O
inhibition [10]: < 50%
pIC50 [1]: 6.46
inhibition [4]: < 50%
inhibition [14]: < 50%
inhibition [6]: < 50%

Structure (SMILES): CCOc1ccc(S(=O)(=O)Nc2ccc(N(Cc3ccc(N(CC(=O)OC)S(=O)(=O)CC)cc3)S(=O)(=O)Cc3ccccc3)cc2)cc1
inhibition [10]: < 50%
pIC50 [1]: 6.33
inhibition [4]: < 50%
pIC50 [11]: 5.72
pIC50 [7]: 4.94

Other lines, results leading:

pIC50 [1]: 4.69
Structure (SMILES): COC(=O)CN(c1ccc(CN(c2ccc(CN(Cc3ccc(C)cc3)S(C)(=O)=O)cc2)S(=O)(=O)Cc2ccccc2)cc1)S(C)(=O)=O

inhibition [2]: < 50%
Structure (SMILES): COC(=O)CN(c1ccc(CN(c2ccc(N(Cc3cccc(Cl)c3)S(C)(=O)=O)cc2)S(=O)(=O)Cc2ccccc2)cc1)S(C)(=O)=O

inhibition [2]: < 50%
Structure (SMILES): COC(=O)CN(c1ccc(CN(c2ccc(CN(Cc3ccccc3)S(C)(=O)=O)cc2)S(=O)(=O)Cc2ccccc2)cc1)S(C)(=O)=O

inhibition [2]: < 50%
Structure (SMILES): CCS(=O)(=O)N(CC(=O)OC)c1ccc(CN(c2ccc(CN(Cc3cccc(Cl)c3)S(C)(=O)=O)cc2)S(=O)(=O)Cc2ccccc2)cc1
